Measurements from ChEMBL document CHEMBL1201862, “PubChem BioAssay data set” (2004).
The source made the active and inactive calls.

How the values were obtained:
[1] = A549 cell cytotoxicity, dose response, cytotoxicity control, 24 h, CellTiter-Glo luminescence, cherry-picks (AID 1053115); type: functional, cell-based; settings: A549, 24 h
[2] = T. cruzi growth inhibition in host cells, dose response, cell-based, plate reader, dry powder, set 2 (AID 652275); type: functional
[3] = growth inhibition of intracellular T. cruzi, dose response, cell-based, plate reader, dry powder samples (AID 651845); type: functional
[4] = T. cruzi intracellular amastigote growth inhibition, dose response, imaging, CA-I/72 strain, bovine embryo skeletal muscle, dry powder (AID 651885); type: functional, cell-based
[5] = Concentration-dependent survival of SW480 colon cancer line, luminescence detection with CellTiter-Glo, half-maximal inhibitory concentration (AID 1117338); type: functional
[6] = RKO cell viability reduction, dose response, CellTiter-Glo luminescence (AID 1117322); type: functional
[7] = cytotoxicity toward HCT116 cells – cell-based, CellTiter-Glo luminescence, IC50, dose response (AID 1117332); type: functional; settings: HCT-116
[8] = SNU-C1 cell viability reduction, dose response, CellTiter-Glo luminescence (AID 1117323); type: functional, cell-based
[9] = cytotoxicity toward Colo320 cells – cell-based, CellTiter-Glo luminescence, IC50, dose response (AID 1117334); type: functional; settings: COLO 320
[10] = cytotoxicity toward HT-29 cells – cell-based, CellTiter-Glo luminescence, IC50, dose response (AID 1117330); type: functional
[11] = CellTiter-Glo luminescent dose response of DLD-1 viability loss (AID 1117352); type: functional
[12] = HCT116 cell viability decrease, GSK3B pretreatment – CellTiter-Glo, IC50, dose response (AID 1117339); type: functional; settings: HCT-116
[13] = insulin promoter down-regulators in MIN6 cells, imaging, high-content screening, mouse beta cells (AID 1628); type: functional
[14] = cytotoxicity in MIN6 insulinoma cells, dose response, cytotoxicity control, cell-based, mouse insulinoma (AID 2122); type: functional;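 note: confirmatory high-throughput counterscreen run to flag cytotoxic compounds; mouse MIN-6 beta cells carrying an insulin promoter eGFP reporter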
[15] = inhibitors of intracellular T. cruzi replication, confirmation, NIH3T3 host cells, beta-gal luminescence (AID 2044); type: functional, cell-based;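 note: intracellular parasites grown in NIH/3T3 mouse fibroblasts as host cells; luminescent beta-galactosidase reporter signal from transgenic T. cruzi replicating inside host cells; inhibitors lower the luminescence signal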
[16] = cytotoxicity toward NIH3T3 fibroblasts, dose response, counter-screen, cell-based, ATP luminescence, mouse fibroblasts (AID 2010); type: functional;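 note: cells exposed to compound for about 90 hours before reading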
Beta-galactosidase = Beta-galactosidase (Escherichia coli, UniProt Q8VNN2); assay: Dose response counterscreen for EBI2 assay utilizing the enzyme, b-galactosidase.; type: functional
Beta-galactosidase, sequence (Q8VNN2 whole entry): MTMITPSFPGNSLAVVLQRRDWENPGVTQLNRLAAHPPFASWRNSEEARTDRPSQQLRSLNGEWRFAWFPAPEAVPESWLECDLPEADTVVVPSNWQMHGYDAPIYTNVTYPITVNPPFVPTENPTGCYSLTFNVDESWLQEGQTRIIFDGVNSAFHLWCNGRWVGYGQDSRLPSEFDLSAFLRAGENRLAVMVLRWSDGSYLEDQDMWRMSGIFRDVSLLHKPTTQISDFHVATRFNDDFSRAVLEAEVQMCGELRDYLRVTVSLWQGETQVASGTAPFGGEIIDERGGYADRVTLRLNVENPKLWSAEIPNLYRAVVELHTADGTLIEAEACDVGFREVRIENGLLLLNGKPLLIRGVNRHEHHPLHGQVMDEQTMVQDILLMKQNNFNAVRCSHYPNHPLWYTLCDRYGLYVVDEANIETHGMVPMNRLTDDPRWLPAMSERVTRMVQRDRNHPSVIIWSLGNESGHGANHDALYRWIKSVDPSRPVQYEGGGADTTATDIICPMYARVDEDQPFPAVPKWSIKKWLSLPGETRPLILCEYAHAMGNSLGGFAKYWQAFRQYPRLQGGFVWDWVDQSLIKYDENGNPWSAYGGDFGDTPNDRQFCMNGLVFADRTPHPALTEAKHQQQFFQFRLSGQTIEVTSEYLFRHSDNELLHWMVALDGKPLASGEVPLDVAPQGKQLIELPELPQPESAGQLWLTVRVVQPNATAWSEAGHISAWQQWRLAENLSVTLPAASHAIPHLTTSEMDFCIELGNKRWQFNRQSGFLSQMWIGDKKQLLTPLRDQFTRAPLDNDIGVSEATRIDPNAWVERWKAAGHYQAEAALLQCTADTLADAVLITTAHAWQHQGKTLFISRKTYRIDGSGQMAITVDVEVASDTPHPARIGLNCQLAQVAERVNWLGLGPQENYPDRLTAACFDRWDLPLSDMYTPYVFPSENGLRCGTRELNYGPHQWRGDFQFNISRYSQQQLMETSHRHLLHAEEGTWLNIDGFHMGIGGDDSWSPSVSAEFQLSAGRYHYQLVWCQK

[17] = THP-1 cell cytotoxicity, dose response, cytotoxicity control for Vif-APOBEC3G degradation inhibitor project, THP-1 cells (AID 1117359); type: functional; settings: Human immunodeficiency virus 1, THP-1
[18] = inhibitors of Vif binding to APOBEC3G peptide, primary screen, biochemical, TR-FRET, GST-Vif 1-94, biotin-A3G peptide, dose response retest (AID 1117319); type: functional;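 note: TR-FRET signal of purified GST-Vif binding a biotinylated A3G peptide; inhibitors lower the FRET signal by blocking Vif and A3G binding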
[19] = Vero cell cytotoxicity, dose response, cytotoxicity control for Vif-APOBEC3G degradation inhibitor project, Vero cells (AID 1117358); type: functional; settings: Human immunodeficiency virus 1, Vero
[20] = biological target: G-protein coupled receptor 183 (Homo sapiens, UniProt P32249); assay: SAR confirmation of small molecule antagonists of the EBI2 receptor via a luminescent beta-arrestin assa.; type: functional
G-protein coupled receptor 183, sequence (P32249 whole entry): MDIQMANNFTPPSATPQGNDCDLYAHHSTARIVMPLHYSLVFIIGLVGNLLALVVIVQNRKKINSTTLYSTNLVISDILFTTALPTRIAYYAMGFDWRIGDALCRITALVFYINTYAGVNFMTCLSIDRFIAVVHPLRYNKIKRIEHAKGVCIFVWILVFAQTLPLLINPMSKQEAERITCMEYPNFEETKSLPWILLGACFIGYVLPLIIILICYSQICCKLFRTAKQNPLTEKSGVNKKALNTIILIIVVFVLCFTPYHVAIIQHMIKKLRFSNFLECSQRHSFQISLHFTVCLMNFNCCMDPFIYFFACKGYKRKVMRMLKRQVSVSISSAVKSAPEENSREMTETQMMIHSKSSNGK

[21] = HeLa 4N DNA content increase, dose response, cell-based, IC50 (AID 1117351); type: functional
[22] = biological target: Sphingosine 1-phosphate receptor 2 (Homo sapiens, UniProt O95136); assay: Dose Response Cell Based Assay for Antagonists of the S1P2 Receptor. [Related pubchem assays: 856, 736 ]; type: functional
Sphingosine 1-phosphate receptor 2, sequence (O95136 whole entry): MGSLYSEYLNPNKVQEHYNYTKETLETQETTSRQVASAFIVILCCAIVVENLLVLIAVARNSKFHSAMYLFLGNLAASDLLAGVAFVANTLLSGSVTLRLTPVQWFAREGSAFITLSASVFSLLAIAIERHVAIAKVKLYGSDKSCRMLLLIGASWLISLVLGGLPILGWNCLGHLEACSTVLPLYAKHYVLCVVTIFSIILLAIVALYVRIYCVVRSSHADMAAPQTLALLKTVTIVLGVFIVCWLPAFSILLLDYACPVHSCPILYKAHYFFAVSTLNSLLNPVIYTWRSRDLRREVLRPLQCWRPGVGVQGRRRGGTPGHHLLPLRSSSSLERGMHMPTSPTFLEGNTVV

[23] = biological target: T1, Calpain-2 catalytic subunit (Sus scrofa, UniProt P43367); assay: pig calpain II inhibitor potency, dose response, biochemical, fluorogenic peptide substrate (AID 1420); type: functional
T1 sequence (P43367 whole entry): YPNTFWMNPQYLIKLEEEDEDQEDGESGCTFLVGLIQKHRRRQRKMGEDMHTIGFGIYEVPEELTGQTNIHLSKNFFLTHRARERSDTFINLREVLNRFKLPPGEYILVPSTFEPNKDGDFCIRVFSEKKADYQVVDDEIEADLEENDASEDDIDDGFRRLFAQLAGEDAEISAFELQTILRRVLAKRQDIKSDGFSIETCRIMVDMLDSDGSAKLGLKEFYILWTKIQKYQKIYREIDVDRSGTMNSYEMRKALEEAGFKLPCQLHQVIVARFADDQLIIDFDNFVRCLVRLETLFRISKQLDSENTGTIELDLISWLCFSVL

[24] = Luminescence-based cell-based high throughput dose response assay to identify activators of the DAF-12 from the parasite S. stercoralis (ssDAF-12).; type: functional
[25] = biological target: T2, Oxysterols receptor LXR-beta (Homo sapiens, UniProt P55055); assay: LXR agonists, Gal4 luciferase reporter, dose response, counter-screen for ssDAF-12 agonist project, cell-based, luminescence, HEK293, S. stercoralis campaign (AID 720737); type: functional; settings: read-out: IC50 (the source's name)
T2 sequence (P55055 whole entry): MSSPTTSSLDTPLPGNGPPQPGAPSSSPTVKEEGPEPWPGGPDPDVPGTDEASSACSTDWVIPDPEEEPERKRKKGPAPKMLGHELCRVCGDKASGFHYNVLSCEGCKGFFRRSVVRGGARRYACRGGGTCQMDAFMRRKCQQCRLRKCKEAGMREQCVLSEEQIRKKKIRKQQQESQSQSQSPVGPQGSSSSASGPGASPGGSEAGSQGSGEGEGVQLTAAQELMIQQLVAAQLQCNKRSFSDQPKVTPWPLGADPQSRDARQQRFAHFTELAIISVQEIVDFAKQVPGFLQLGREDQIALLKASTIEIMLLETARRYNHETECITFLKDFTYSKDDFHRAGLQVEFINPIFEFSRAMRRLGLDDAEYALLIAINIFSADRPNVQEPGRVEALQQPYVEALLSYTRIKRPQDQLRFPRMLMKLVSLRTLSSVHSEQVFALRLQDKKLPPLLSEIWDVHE

[26] = biological target: Dual specificity tyrosine-phosphorylation-regulated kinase 1A (Rattus norvegicus, UniProt Q63470); type: biochemical, Homo sapiens
[27] = biological target: T3, Rac GTPase-activating protein 1 (Homo sapiens, UniProt Q9H0H5); assay: MgcRacGAP GTPase-activating activity inhibitors, confirmation, biochemical, ADP Hunter fluorescence, primary and confirmatory (AID 624330); type: functional
T3 sequence (Q9H0H5 whole entry): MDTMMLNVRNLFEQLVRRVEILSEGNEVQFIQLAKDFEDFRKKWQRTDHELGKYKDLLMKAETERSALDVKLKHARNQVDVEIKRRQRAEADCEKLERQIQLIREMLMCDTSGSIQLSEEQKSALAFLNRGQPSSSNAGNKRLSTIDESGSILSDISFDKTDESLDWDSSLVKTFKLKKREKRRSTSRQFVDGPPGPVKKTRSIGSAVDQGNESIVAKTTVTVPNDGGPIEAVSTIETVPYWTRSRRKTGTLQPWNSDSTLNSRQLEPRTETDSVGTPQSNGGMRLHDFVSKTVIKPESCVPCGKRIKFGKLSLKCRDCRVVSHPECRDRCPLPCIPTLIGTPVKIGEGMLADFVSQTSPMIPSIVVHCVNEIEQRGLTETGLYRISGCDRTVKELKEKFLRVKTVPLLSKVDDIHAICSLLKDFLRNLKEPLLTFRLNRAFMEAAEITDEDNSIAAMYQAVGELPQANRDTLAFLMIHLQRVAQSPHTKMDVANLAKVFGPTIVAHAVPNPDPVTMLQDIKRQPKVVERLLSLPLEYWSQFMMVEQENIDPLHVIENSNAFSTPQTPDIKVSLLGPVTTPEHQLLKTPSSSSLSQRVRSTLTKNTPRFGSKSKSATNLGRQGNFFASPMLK

[28] = biological target: T2, Oxysterols receptor LXR-beta; type: functional, cell-based
Fibrinogen beta chain [29] = biological target: T4, Fibrinogen beta chain (Homo sapiens, UniProt P02675); assay: Fluorescence polarization-based biochemical high throughput dose response assay to identify inhibitors that disrupt the binding of a cyclic peptide (Tn6) to the fibrin proteolytic product D-Dimer and fragment E complex [DD(E )].
T4 sequence (P02675 whole entry, the tested form may be a part): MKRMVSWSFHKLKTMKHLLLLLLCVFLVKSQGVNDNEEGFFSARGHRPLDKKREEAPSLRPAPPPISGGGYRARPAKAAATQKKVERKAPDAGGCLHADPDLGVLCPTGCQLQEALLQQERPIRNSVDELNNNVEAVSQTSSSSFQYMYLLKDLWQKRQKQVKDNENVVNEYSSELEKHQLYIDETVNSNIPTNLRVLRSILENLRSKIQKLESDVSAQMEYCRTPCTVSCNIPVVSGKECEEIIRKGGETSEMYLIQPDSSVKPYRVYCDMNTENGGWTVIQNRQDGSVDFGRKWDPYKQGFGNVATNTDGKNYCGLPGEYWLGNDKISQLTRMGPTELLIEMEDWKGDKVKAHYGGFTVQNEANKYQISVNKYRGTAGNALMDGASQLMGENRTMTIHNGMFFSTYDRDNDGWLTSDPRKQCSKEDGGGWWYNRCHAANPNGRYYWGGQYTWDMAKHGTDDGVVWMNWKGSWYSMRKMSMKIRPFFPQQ

Fibrinogen beta chain [30] = biological target: T4, Fibrinogen beta chain; assay: Fluorescence polarization-based biochemical high throughput dose response assay to identify inhibitors that disrupt the binding of a cyclic peptide (Tn7) to the fibrin proteolytic product D-Dimer and fragment E complex [DD(E )].
[31] = Late-stage results from the probe development effort to identify antagonists of arginine vasopressin receptor 1a (AVPR1a): fluorescence-based cell-based dose response AVPR1a inhibition assay.; type: functional
Vasopressin V1b receptor = Vasopressin V1b receptor (Homo sapiens, UniProt P47901); assay: Late-stage results from the probe development effort to identify antagonists of arginine vasopressin receptor 1a (AVPR1a): fluorescence-based cell-based dose response AVPR1b inhibition counterscreen assay.; type: functional
Vasopressin V1b receptor, sequence (P47901 whole entry): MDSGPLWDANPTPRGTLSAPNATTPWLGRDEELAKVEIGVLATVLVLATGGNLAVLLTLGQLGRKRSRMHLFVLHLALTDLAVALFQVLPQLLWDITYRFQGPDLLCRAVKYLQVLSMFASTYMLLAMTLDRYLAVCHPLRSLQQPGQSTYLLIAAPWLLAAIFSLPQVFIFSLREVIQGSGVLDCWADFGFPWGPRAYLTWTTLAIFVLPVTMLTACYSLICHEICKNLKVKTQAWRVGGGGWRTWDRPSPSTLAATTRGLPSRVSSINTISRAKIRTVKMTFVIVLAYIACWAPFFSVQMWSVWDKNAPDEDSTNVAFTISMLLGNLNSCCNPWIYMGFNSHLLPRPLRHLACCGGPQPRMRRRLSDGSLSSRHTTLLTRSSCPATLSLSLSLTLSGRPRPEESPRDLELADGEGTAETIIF

Vasopressin V2 receptor = Vasopressin V2 receptor (Homo sapiens, UniProt P30518); assay: Late-stage results from the probe development effort to identify antagonists of arginine vasopressin receptor 1a (AVPR1a): fluorescence-based cell-based dose response AVPR2 inhibition counterscreen assay.; type: functional
Vasopressin V2 receptor, sequence (P30518 whole entry): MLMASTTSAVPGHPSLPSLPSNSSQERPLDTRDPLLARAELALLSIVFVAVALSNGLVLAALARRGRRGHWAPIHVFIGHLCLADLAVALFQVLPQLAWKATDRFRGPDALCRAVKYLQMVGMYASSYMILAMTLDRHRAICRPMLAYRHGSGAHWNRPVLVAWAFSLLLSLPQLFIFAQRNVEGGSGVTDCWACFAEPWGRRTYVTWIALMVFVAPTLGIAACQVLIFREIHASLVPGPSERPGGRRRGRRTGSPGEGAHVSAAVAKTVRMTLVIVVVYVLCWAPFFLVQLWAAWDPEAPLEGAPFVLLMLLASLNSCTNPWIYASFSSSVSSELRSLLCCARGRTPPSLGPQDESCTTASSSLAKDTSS

[32] = Late-stage results from the probe development effort to identify antagonists of arginine vasopressin receptor 1a (AVPR1a): fluorescence-based cell-based dose response OXTR inhibition counterscreen assay.; type: functional
[33] = biological target: Peroxisome proliferator-activated receptor gamma/Nuclear receptor corepressor 2 (Homo sapiens, UniProt P37231+Q9Y618); assay: Counterscreen for NR2E3 inverse agonists: TR-FRET-based biochemical high throughput dose response assay to identify inverse agonists of the interaction between peroxisome proliferator-activated receptor gamma (PPARg) and nuclear receptor co-repressor 2 (NCOR2).; type: functional
[34] = biological target: Photoreceptor-specific nuclear receptor (Homo sapiens, UniProt Q9Y5X4); assay: NR2E3 inverse agonists, dose response, biochemical, TR-FRET (AID 463256); type: functional
Photoreceptor-specific nuclear receptor, sequence (Q9Y5X4 whole entry): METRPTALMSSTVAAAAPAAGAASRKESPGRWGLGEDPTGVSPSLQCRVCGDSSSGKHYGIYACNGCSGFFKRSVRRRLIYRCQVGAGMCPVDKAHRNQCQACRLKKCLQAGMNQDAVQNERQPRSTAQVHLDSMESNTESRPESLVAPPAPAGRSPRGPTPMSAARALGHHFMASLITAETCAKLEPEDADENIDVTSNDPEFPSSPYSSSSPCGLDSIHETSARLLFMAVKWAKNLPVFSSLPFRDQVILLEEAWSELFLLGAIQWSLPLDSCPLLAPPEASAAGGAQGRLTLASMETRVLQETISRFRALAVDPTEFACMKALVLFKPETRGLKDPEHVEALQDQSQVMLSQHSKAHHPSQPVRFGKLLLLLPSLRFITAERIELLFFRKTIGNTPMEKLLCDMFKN

Cytochrome P450 1A2 = biological target: T5, Cytochrome P450 1A2 (Homo sapiens, UniProt P05177);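 note: PubChem cytochrome P450 panel assay, CYP1A2 panel member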
T5 sequence (P05177 whole entry): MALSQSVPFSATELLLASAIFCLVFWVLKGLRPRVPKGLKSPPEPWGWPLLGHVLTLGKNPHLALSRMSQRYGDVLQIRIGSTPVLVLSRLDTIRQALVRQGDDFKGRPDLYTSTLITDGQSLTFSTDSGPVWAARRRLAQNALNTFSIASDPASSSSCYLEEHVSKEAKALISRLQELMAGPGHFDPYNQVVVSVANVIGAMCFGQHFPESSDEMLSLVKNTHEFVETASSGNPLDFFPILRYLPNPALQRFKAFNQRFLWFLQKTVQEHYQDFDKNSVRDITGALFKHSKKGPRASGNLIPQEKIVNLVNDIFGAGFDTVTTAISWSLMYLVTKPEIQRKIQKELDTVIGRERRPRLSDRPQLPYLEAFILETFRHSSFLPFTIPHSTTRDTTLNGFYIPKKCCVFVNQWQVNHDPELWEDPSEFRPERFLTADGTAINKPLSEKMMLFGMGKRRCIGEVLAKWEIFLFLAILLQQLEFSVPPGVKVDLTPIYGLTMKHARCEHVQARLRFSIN

Cytochrome P450 3A4 = Cytochrome P450 3A4 (Homo sapiens, UniProt P08684);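 note: CYP3A4 tested as one member of a cytochrome P450 panel screen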
Cytochrome P450 3A4, sequence (P08684 whole entry): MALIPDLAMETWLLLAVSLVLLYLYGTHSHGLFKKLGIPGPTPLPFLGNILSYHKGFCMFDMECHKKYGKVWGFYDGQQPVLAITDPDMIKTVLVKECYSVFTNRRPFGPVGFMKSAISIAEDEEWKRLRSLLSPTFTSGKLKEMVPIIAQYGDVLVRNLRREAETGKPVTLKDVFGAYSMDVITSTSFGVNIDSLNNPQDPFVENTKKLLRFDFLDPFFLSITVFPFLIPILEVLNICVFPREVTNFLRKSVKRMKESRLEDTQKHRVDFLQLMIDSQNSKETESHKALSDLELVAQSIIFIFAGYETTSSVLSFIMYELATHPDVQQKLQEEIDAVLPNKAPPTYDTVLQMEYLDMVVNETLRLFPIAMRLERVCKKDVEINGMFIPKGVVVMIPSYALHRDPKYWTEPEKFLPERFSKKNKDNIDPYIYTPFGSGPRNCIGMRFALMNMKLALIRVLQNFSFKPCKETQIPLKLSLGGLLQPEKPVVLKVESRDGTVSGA

[35] = biological target: Diphosphomevalonate decarboxylase (Streptococcus pneumoniae serotype 2 (strain D39 / NCTC 7466), UniProt Q9FD53); assay: S. pneumoniae DPM-DC inhibition retest, confirmation, biochemical, cuvette format, coupled NADH fluorescence (AID 1028); type: functional
Diphosphomevalonate decarboxylase, sequence (Q9FD53 whole entry): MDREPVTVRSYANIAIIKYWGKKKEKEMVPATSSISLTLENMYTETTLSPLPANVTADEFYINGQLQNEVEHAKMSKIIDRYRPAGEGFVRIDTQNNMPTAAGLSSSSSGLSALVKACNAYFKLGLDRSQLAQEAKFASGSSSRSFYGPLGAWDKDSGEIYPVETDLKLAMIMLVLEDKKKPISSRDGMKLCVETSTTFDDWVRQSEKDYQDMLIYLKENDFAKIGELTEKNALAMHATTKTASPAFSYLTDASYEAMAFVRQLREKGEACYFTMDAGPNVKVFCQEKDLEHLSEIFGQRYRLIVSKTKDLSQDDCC

OC[C@@H]1Nc2ccc(-c3cccc(F)c3)cc2[C@H]2[C@@H]1CCN2Cc1ccc(F)cc1
AC50 [1]: 51.5 µM (active)

CC(C)N1C[C@H](C)[C@@H](CN(C)Cc2ccc(Oc3ccccc3)cc2)Oc2c(NC(=O)c3ccncc3)cccc2C1=O
AC50 [2]: 1.11 nM (active) | AC50 [3]: 1.19 nM (active) | IC50 [4]: 1.63 nM (active)

CC(CC=O)CCCC(C)(C)O (stereo unspecified)
IC50 [5]: > 20 µM (inactive) | IC50 [6]: > 20 µM (inactive) | IC50 [7]: > 20 µM (inactive) | IC50 [8]: > 20 µM (inactive) | IC50 [9]: > 20 µM (inactive) | IC50 [10]: > 20 µM (inactive) | IC50 [11]: > 20 µM (inactive) | IC50 [12]: > 20 µM (inactive)

Cc1cccc(S(=O)(=O)c2c(N)n(/N=C/c3ccco3)c3nc4ccccc4nc23)c1
IC50 [13]: 6.02 µM (active) | IC50 [14]: 9.21 µM (active) | EC50 [15]: 2.12 µM (active) | EC50 [16]: 12 µM (active) | IC50 (Beta-galactosidase): > 80 µM (inactive) | CC50 [17]: > 40 µM (active) | IC50 [18]: > 55.3 µM (active) | CC50 [19]: > 40 µM (active)

CCOc1ccc(/C=C/C(=O)N2CCN(S(=O)(=O)c3ccc(Br)cc3)CC2)cc1
IC50 [20]: 14.3 nM (active)

COc1cccc2c1C(=O)c1c(O)c3c(c(O)c1C2=O)C[C@@](O)(C(=O)CO)CC3OC1CC(N2CCOC(OC)C2)C(O)C(C)O1 (stereo partly specified)
IC50 [5]: 0.001 µM (active) | IC50 [6]: 0.001 µM (active) | IC50 [9]: 0.001 µM (active) | IC50 [21]: > 10 µM (inactive) | IC50 [11]: 0.001 µM (active) | IC50 [12]: 0.001 µM (active)

COC(=O)c1sc2cc(C(F)(F)F)cnc2c1-c1cccnc1
IC50 [22]: > 30 µM (not active) | IC50 [23]: 14.3 µM (not active)

Oc1ccc(N=Nc2ccccc2)o1
IC50 [24]: > 67.6 µM (inactive) | EC50 [25]: > 67.6 µM (inactive)

CSc1nc(/C=C2\C=Nc3ccccc32)c(O)[nH]1
AC50 [26]: 7.28 µM (active) | IC50 [27]: 35.9 µM (active) | EC50 [28]: > 67.6 µM (inactive) | EC50 (cells): > 67.6 µM (inactive)

CCOC(=O)N1CCN(Cc2nc(-c3ccc(C)cc3)no2)CC1
IC50 (Fibrinogen beta chain [29]): > 83.3 µM (inactive) | IC50 (Fibrinogen beta chain [30]): > 27.8 µM (inactive)

O=C(C1CCN(c2ncccc2F)CC1)N(CC1CC1)c1ccc(Cl)cc1
IC50 [31]: 15 nM (active) | IC50 (Vasopressin V1b receptor): 11.5 µM (inactive) | IC50 (Vasopressin V2 receptor): 19 µM (inactive) | IC50 [32]: 3.6 µM (active)

COc1ccc(N2C(=O)c3ccccc3NC2c2ccc(OC)c(CSc3ccccn3)c2)cc1 (stereo unspecified)
IC50 [33]: 7.42 µM (active) | IC50 [34]: 5.92 µM (active) | AC50 (Cytochrome P450 1A2): 15.8 µM (inconclusive) | AC50 (Cytochrome P450 3A4): 1 µM (inconclusive)

CCN(CC)C(=O)c1ccc(-n2sc3ccccc3c2=O)cc1
IC50 [35]: 19.2 µM (active)
